{"source": "patent US10993923B2", "about": "“Method for ameliorating fibrosis using 1-[4-chloro-3-(trifluoromethyl)phenyl]-3-[3-(4-cyanophenoxy)phenyl]urea” (priority 2016, dated 2021)", "test_system": "TGF-β, PDGFR and STAT3 pathways in LX2 cells", "test": "Western blot of signalling proteins in LX2 cells", "format": "cell-based, human", "protocol": "Rat immortal hepatic stellate cell line HSC-T6 and LX2 human hepatic stellate cell line were provided by Professor Scott Friedman of Mount Sinai Hospital in New York, USA. The primary mouse HSCs were obtained via the way: after intubating the hepatic portal vein of the mouse, the cells were perfused with […] and ethylene glycol bis-aminoethyl ether tetraacetic acid (EGTA) buffer in situ, and then collagenase was injected to digest the liver tissue, and then the primary mouse HSCs were isolated by Histodnz gradient. HSC-T6 cells were cultured in Waymouth medium; LX2 cells and primary mouse HSCs were cultured in Dulbecco's Modified Eagle Medium (DMEM) containing 10% fetal bovine serum (FBS), 100 μg/mL penicillin, 100 μg/mL streptomycin, and 2 mM L-glutamine HSC-T6 cells, LX2 cells and primary mouse HSCs were cultured in a humidified incubator containing 5% carbon dioxide at 37° C. After adding the FBS, the resting HSC is started. […] Whole-cell extracts were obtained via RIPA buffer (Millipore, USA) and protein concentrations were quantified via a BCA protein assay kit (Thermo Fisher Scientific, USA). 20 or 25 μg of protein was added to various percentages of SDS-sodium dodecyl sulfate-acrylamide gel and blotted onto a polyvinylidene fluoride (PVDF) membrane. […] Proteins were detected by Immobilon Western Chemiluminescent HRP substrate (Millipore, USA) or ECL detection system (UVP Corporation, USA). […] Plasmids encoding the human wild-type SHP-1 and SHP-1 mutant, in which the N-SH2 domain was […] was changed into an […]) were cloned into the pCMV6-entry vector with myc-tag. These mutants were confirmed through DNA sequencing. […] (Chicago, Ill., USA).", "data": [{"smiles": "N#Cc1ccc(Oc2cccc(NC(=O)Nc3ccc(Cl)c(C(F)(F)F)c3)c2)cc1", "note": "[1-[4-chloro-3-(trifluoromethyl)phenyl]-3-[3-(4-cyanophenoxy)phenyl]urea]", "values": [{"measurement": "p-STAT3, ectopic expression of the vector control and wild-type SHP-1", "setting": "5 μM, 24 hours, FIG. 17D, 17E", "value": "downregulated"}, {"measurement": "p-PDGFR and p-Akt in the PDGFR pathway", "setting": "10 μM for 4 hours, then PDGF-BB 100 ng/mL 10 minutes, FIG. 14E", "value": "downregulated"}, {"measurement": "p-Smad2 and p-Smad3 of the TGF-β pathway", "setting": "10 μM for 4 hours, then TGF-β1 10 ng/mL 20 minutes, FIG. 14D", "value": "downregulated"}, {"measurement": "downregulation of p-STAT3 and cyclin D1, compared with sorafenib", "setting": "FIG. 15A", "value": "more significant dose-escalation effects on the downregulation"}]}]}
